Test results: ChEMBL document CHEMBL5370531, “Design, synthesis and pharmacological evaluation of 2,3-dihydrobenzofuran IRAK4 inhibitors for the treatment of diffuse large B-cell lymphoma” (Eur J Med Chem, 2023)
Active and inactive are the calls of the source. The rule behind the calls is not given here.

Tests used:
[1] = Cytotoxicity against human GM00637 cells assessed as inhibition of cell proliferation incubated for 72 hrs by CCK-8 assay; format: toxicity, cell-based
[2] = target: Proto-oncogene tyrosine-protein kinase receptor Ret (Homo sapiens) (UniProt P07949); test: Inhibition of RET (unknown origin) at 100 nM incubated for 1 hr in presence of ATP by ELISA analysis relative to control
[3] = target: Platelet-derived growth factor receptor alpha (Homo sapiens) (UniProt P16234); test: Inhibition of PDGFR-alpha (unknown origin) at 100 nM incubated for 1 hr in presence of ATP by ELISA analysis
[4] = target: Fibroblast growth factor receptor 3 (Homo sapiens) (UniProt P22607); test: Inhibition of FGFR3 (unknown origin) at 100 nM incubated for 1 hr in presence of ATP by ELISA analysis
[5] = target: Tyrosine-protein kinase ITK/TSK (Homo sapiens) (UniProt Q08881); test: Inhibition of ITK (unknown origin) at 100 nM incubated for 1 hr in presence of ATP by ELISA analysis
OCI-Ly10 [6] = test: Induction of apoptosis in human OCILY10 cells assessed as early apoptotic cells at 0.1 uM incubated for 24 hrs by Annexin V-FITC/PI staining based flow cytometry (reference value: 10 %); format: functional
OCI-Ly10 [7] = test: Induction of apoptosis in human OCILY10 cells assessed as early apoptotic cells at 0.5 uM incubated for 24 hrs by Annexin V-FITC/PI staining based flow cytometry (reference value: 10 %); format: functional
OCI-Ly10 [8] = test: Induction of apoptosis in human OCILY10 cells assessed as late apoptotic cells at 0.2 uM incubated for 24 hrs by Annexin V-FITC/PI staining based flow cytometry (reference value: 3.71 %); format: functional
OCI-Ly10 [9] = test: Induction of apoptosis in human OCILY10 cells assessed as late apoptotic cells at 0.5 uM incubated for 24 hrs by Annexin V-FITC/PI staining based flow cytometry (reference value: 3.71 %); format: functional
OCI-Ly10 [10] = test: Induction of apoptosis in human OCILY10 cells assessed as early apoptotic cells at 0.2 uM incubated for 48 hrs by Annexin V-FITC/PI staining based flow cytometry (reference value: 5.4 %); format: functional
OCI-Ly10 [11] = test: Induction of apoptosis in human OCILY10 cells assessed as early apoptotic cells at 0.5 uM incubated for 48 hrs by Annexin V-FITC/PI staining based flow cytometry (reference value: 5.4 %); format: functional
OCI-Ly10 [12] = test: Induction of apoptosis in human OCILY10 cells assessed as late apoptotic cells at 0.2 uM incubated for 48 hrs by Annexin V-FITC/PI staining based flow cytometry (reference value: 3.54 %); format: functional
OCI-Ly10 [13] = test: Induction of apoptosis in human OCILY10 cells at 0.5 uM incubated for 24 hrs by Annexin V-FITC/PI staining based flow cytometry; format: functional
OCI-Ly10 [14] = test: Induction of apoptosis in human OCILY10 cells at 1 uM incubated for 24 hrs by Annexin V-FITC/PI staining based flow cytometry; format: functional
OCI-Ly10 [15] = test: Induction of apoptosis in human OCILY10 cells assessed as upregulation of PARP cleavage at 0.1 to 1 uM incubated for 48 hrs by immunoblotting analysis; format: functional, cell-based; conditions: dose 0.1-1 µM
OCI-Ly10 [16] = test: Synergistic antiproliferative activity against human OCILY10 cells harboring MYD88 L265P assessed as inhibition of cell growth at 400 nM incubated for 72 hrs in presence of BTK inhibitor, ibrutinib at 1.6 nM by CCK-8 assay (reference value: 34.46 %); format: functional
OCI-Ly10 [17] = test: Synergistic antiproliferative activity against human OCILY10 cells harboring MYD88 L265P assessed as inhibition of cell growth at 200 nM incubated for 72 hrs in presence of BTK inhibitor, ibrutinib at 3.1 nM by CCK-8 assay (reference value: 26.07 %); format: functional
OCI-Ly10 [18] = test: Synergistic antiproliferative activity against human OCILY10 cells harboring MYD88 L265P assessed as inhibition of cell growth at 400 nM incubated for 72 hrs in presence of BTK inhibitor, ibrutinib at 3.1 nM by CCK-8 assay (reference value: 34.46 %); format: functional
OCI-Ly10 [19] = test: Synergistic antiproliferative activity against human OCILY10 cells harboring MYD88 L265P assessed as inhibition of cell growth at 800 nM incubated for 72 hrs in presence of BTK inhibitor, ibrutinib at 3.1 nM by CCK-8 assay (reference value: 54.76 %); format: functional
OCI-Ly10 [20] = test: Synergistic antiproliferative activity against human OCILY10 cells harboring MYD88 L265P assessed as inhibition of cell growth at 800 nM incubated for 72 hrs in presence of BTK inhibitor, ibrutinib at 6.2 nM by CCK-8 assay (reference value: 54.76 %); format: functional
OCI-Ly10 [21] = test: Synergistic antiproliferative activity against human OCILY10 cells harboring MYD88 L265P assessed as inhibition of cell growth at 1600 nM incubated for 72 hrs in presence of BTK inhibitor, ibrutinib at 6.2 nM by CCK-8 assay (reference value: 64.69 %); format: functional
OCI-Ly10 [22] = test: Synergistic antiproliferative activity against human OCILY10 cells harboring MYD88 L265P assessed as inhibition of cell growth at 200 nM incubated for 72 hrs in presence of BTK inhibitor, ibrutinib at 12.5 nM by CCK-8 assay (reference value: 26.07 %); format: functional
OCI-Ly10 [23] = test: Synergistic antiproliferative activity against human OCILY10 cells harboring MYD88 L265P assessed as inhibition of cell growth at 100 nM incubated for 72 hrs in presence of BTK inhibitor, ibrutinib at 25 nM by CCK-8 assay (reference value: 21.36 %); format: functional
OCI-Ly10 [24] = test: Synergistic antiproliferative activity against human OCILY10 cells harboring MYD88 L265P assessed as inhibition of cell growth at 1600 nM incubated for 72 hrs in presence of BTK inhibitor, ibrutinib at 25 nM by CCK-8 assay (reference value: 64.69 %); format: functional
OCI-Ly10 [25] = test: Induction of apoptosis in human OCILY10 cells harboring MYD88 L265P assessed as upregulation of caspase-3 cleavage at 0.1 uM in presence of BTK inhibitor, ibrutinib by immunoblotting analysis; format: functional, cell-based

Chain of Platelet-derived growth factor receptor alpha (Homo sapiens) (P16234 whole entry): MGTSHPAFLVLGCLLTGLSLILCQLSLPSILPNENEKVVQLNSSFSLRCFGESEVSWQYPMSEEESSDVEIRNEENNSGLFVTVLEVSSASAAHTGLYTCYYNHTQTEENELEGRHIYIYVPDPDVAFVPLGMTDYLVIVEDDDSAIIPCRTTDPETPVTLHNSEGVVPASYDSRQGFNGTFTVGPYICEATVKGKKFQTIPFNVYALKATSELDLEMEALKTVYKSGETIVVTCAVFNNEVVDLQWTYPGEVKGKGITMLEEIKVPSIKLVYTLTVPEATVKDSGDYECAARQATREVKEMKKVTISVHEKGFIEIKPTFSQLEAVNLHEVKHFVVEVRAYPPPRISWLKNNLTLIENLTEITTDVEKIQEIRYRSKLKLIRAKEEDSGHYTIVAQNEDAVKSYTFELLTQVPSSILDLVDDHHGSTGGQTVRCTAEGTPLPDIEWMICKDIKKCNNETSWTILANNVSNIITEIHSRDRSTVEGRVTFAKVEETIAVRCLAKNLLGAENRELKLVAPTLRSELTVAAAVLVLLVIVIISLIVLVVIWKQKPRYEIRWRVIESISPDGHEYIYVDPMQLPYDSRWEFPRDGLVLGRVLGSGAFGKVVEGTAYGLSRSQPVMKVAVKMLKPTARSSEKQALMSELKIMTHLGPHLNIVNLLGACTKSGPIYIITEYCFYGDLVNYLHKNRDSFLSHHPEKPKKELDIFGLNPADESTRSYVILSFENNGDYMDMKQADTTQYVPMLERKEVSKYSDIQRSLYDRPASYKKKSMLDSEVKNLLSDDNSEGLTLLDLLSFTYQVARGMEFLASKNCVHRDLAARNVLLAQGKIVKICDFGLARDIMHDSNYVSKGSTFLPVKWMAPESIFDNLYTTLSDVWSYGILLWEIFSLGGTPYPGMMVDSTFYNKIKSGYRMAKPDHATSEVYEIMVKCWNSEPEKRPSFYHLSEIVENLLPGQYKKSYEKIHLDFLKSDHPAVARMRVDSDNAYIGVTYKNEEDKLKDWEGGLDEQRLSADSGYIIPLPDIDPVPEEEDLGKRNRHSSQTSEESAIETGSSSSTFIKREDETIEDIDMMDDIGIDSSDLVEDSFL
Chain of Fibroblast growth factor receptor 3 (Homo sapiens) (P22607 23-806 limits assumed): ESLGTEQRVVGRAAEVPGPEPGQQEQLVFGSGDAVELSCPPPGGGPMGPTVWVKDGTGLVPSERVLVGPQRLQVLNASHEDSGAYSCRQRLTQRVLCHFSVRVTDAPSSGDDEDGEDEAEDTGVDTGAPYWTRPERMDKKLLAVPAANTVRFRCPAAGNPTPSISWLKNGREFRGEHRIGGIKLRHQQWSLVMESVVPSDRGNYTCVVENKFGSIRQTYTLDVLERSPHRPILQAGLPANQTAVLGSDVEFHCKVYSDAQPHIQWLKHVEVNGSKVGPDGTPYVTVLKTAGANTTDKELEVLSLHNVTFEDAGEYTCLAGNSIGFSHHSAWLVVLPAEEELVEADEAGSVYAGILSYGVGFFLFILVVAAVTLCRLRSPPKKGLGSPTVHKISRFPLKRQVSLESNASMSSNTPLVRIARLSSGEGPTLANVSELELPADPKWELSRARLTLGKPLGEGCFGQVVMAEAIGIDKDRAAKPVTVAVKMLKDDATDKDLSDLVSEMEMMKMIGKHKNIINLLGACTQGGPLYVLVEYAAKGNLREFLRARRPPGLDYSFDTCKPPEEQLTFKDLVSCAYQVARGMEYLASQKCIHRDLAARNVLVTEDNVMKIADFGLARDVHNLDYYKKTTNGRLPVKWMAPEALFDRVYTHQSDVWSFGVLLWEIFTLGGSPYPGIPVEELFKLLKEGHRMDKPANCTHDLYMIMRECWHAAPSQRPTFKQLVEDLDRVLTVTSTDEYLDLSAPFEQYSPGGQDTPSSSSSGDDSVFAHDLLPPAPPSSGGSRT
Chain of Proto-oncogene tyrosine-protein kinase receptor Ret (Homo sapiens) (P07949 whole entry): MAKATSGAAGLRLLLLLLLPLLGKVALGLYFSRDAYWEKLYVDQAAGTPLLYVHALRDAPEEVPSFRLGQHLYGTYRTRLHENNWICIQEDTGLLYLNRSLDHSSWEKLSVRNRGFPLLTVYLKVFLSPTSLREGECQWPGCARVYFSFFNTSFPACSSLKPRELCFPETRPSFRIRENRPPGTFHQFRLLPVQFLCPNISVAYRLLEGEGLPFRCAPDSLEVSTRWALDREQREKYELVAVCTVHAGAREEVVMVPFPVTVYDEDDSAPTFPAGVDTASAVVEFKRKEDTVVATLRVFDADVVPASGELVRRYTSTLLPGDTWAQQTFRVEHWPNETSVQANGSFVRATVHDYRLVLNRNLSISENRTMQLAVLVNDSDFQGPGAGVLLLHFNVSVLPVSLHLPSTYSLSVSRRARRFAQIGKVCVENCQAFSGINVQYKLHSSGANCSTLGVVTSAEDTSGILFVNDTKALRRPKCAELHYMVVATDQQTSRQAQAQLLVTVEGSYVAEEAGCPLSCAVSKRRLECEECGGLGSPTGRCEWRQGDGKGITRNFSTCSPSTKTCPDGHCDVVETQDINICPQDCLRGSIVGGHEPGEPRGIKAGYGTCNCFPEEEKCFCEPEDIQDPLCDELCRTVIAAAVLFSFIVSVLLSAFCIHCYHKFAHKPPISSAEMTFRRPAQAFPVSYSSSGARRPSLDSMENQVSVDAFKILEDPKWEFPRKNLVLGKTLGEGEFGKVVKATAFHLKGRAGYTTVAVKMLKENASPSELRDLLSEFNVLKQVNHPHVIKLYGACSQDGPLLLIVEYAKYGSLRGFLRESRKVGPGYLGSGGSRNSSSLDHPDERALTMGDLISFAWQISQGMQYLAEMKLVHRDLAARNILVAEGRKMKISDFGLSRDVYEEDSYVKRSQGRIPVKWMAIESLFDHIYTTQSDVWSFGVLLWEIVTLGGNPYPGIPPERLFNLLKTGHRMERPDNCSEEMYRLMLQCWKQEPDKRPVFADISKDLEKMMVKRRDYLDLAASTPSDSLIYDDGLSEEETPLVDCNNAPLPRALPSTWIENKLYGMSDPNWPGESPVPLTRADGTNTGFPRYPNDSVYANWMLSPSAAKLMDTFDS
Chain of Tyrosine-protein kinase ITK/TSK (Homo sapiens) (Q08881 whole entry): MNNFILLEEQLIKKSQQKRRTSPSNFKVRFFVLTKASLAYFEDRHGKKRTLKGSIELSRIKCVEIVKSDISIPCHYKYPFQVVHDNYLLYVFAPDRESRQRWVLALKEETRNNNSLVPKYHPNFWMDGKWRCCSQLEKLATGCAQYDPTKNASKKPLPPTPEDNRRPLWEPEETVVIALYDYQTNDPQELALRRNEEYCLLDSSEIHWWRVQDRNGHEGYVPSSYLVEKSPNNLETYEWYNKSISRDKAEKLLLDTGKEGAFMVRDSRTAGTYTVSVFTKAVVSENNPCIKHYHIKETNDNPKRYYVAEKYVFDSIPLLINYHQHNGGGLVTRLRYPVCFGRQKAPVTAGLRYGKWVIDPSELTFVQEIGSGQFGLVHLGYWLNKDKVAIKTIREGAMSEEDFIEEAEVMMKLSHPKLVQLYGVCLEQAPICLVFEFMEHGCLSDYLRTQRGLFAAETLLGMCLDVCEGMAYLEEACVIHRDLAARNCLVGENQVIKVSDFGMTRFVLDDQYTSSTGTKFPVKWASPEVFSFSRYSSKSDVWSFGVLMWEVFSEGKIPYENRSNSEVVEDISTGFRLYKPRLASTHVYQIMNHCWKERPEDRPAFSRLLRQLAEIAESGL

## Cn1cc(-c2cc3c(cc2NC(=O)c2coc(-c4ccnc(N)c4)n2)CC(C)(C)O3)cn1
[1]
  IC50 at 72 h: 1.52 µM
[2]
  inhibition: > 50%
[3]
  inhibition: inactive
[4]
  inhibition: inactive
[5]
  inhibition: inactive
OCI-Ly10 [6]
  Activity: 9.32%
OCI-Ly10 [7]
  Activity: 22.8%
OCI-Ly10 [8]
  Activity: 11.8%
OCI-Ly10 [9]
  Activity: 25.2%
OCI-Ly10 [10]
  Activity: 21.2%
OCI-Ly10 [11]
  Activity: 45.7%
OCI-Ly10 [12]
  Activity: 13.2%
OCI-Ly10 [13]
  Activity: 48.3%
OCI-Ly10 [14]
  Activity: 66.8%
OCI-Ly10 [15]
  Activity: Active
OCI-Ly10 [16]
  inhibition at 0.4 µM: 37.4%
OCI-Ly10 [17]
  inhibition at 0.2 µM: 29.5%
OCI-Ly10 [18]
  inhibition at 0.4 µM: 42.3%
OCI-Ly10 [19]
  inhibition at 0.8 µM: 64.6%
OCI-Ly10 [20]
  inhibition at 0.8 µM: 83.3%
OCI-Ly10 [21]
  inhibition at 1.6 µM: 88.6%
OCI-Ly10 [22]
  inhibition at 0.2 µM: 67.5%
OCI-Ly10 [23]
  inhibition at 0.1 µM: 72.2%
OCI-Ly10 [24]
  inhibition at 1.6 µM: 89.6%
OCI-Ly10 [25]
  Activity: Active
